Results taken from patent US7862642B2, “Extended-release urea-based granular fertilizer” (Georgia-Pacific Chemicals LLC, priority 2006, dated 2011).
Where two headings read alike, the source gives them in different places.

Test system: Kentucky bluegrass (Poa pratenis L.) turf stand
Conditions: visual scale 1-9 (1=no burn or discoloration, 6=moderate, 9=severe), 3 replications; for Mean Phytotoxicity Score DAT 3: 3 days after treatment; for Mean Phytotoxicity Score DAT 5: 5 days after treatment; for Mean Phytotoxicity Score DAT 13: 13 days after treatment; for Mean Phytotoxicity Score DAT 20: 20 days after treatment
Excerpt: SGN is defined as the median particle size (in millimeters), i.e., 50% of the particles (by weight) have a particle size above and below this number. The respective fertilizers were applied to a Kentucky bluegrass (Poa pratenis L.) turf stand at the Hancock Turfgrass Research Center on the campus of Michigan State University.
The experimental design was a randomized complete block design with 3 replications. Fertilizer treatments were applied at rates of 1, 2, and 6 lbs. Nitrogen/1000 ft^2. Treatments were applied with a hand shaker container over a 12 ft^2 area. Irrigation (0.25″ water) was not applied until 3 days after treatment application. Visual ratings were conducted on a scale 1-9 with 1=no burn or discoloration, 6=moderate burn or discoloration, and 9=severe burn or discoloration.

NC(N)=O [UREA, urea]
Mean Phytotoxicity Score DAT 3 (1 lb N/1000 ft^2): 1 | Mean Phytotoxicity Score DAT 5 (1 lb N/1000 ft^2): 1 | Mean Phytotoxicity Score DAT 13 (1 lb N/1000 ft^2): 1 | Mean Phytotoxicity Score DAT 20 (1 lb N/1000 ft^2): 1 | Mean Phytotoxicity Score DAT 3 (2 lb N/1000 ft^2): 2.3 | Mean Phytotoxicity Score DAT 5 (2 lb N/1000 ft^2): 3.7 | Mean Phytotoxicity Score DAT 13 (2 lb N/1000 ft^2): 2.3 | Mean Phytotoxicity Score DAT 20 (2 lb N/1000 ft^2): 1 | Mean Phytotoxicity Score DAT 3 (6 lb N/1000 ft^2): 7.7 | Mean Phytotoxicity Score DAT 5 (6 lb N/1000 ft^2): 8.2 | Mean Phytotoxicity Score DAT 13 (6 lb N/1000 ft^2): 7.7 | Mean Phytotoxicity Score DAT 20 (6 lb N/1000 ft^2): 4.0
